Among the data in patent US20260258050A1, “IMMUNOMODULATOR” (HITGEN INC., priority 2023, published 2026) are IC50 values, retold here.

This assay deals with T1, Human IL-17AF (Homo sapiens, UniProt Q16552+Q96PD4).
T1 construct: purchased Sino Biological Inc. CT047-H08H
T1 sequence (Q16552 24-155): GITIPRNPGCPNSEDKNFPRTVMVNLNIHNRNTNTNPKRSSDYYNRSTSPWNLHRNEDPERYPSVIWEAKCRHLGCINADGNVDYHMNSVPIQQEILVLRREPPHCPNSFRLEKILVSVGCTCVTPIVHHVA
T1 sequence (Q96PD4 31-163): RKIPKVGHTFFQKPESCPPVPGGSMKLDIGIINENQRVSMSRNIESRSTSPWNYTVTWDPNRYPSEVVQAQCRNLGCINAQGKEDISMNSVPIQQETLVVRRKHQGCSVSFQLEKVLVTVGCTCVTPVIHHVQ
As to the kind of experiment: IL-17AF ELISA (competitive ELISA, IL-17AF/IL-17Ra receptor-ligand binding). The note with it: human IL-17AF coated plate, human IL-17Ra, read-out: IC50, inhibitory activity of compounds on human IL-17AF. The procedure: Experiment Example 2 IL-17AF ELISA
The inhibitory effects of human IL-17AF inhibitors on receptor-ligand binding were quantitatively determined by a competitive ELISA.
The ELISA was performed through the following steps.
Human IL-17AF (Sino Biological Inc., Cat #CT047-H08H) was diluted with coating buffer (50 mM PBS, pH 7.4) to reach a concentration of 0.625 μg/ml. 100 μL of the resulting solution was added to each well of a 96-well plate, and the plate was incubated at 37° C. for 30 min. In the blank group, 100 μL of coating buffer was added instead of the IL-17AF solution.
The plate was washed four times with 10 mM PBST (pH 7.4). 200 μL was used per well for each wash. After the final wash, the plate was tapped dry on absorbent paper.
Fresh 5% (w/v) skim milk solution was prepared before the experiment. For example, 5 grams of skim milk powder (Bio-Rad, Cat #170-6404) was completely dissolved in 100 mL of 10 mM PBST. 200 μL of the 5% (w/v) skim milk solution was added to each well, and the plate was incubated on a shaker at 25° C. for 30 min.
(S4) Preparation of 100× to-be-Tested Compound Solutions
During step (S3), the to-be-tested compound solutions were prepared. Each powdered compound was dissolved in dimethyl sulfoxide (DMSO) to reach a stock concentration of 10 mM. The to-be-tested compound solutions were then serially diluted four-fold with DMSO to obtain nine concentrations ranging from […].
(S6) Pre-Incubation of IL-17AF with to-be-Tested Compound Solutions
89 μL of PBST and 1 μL of each of the to-be-tested compound solutions were added to each well and mixed. The plate was pre-incubated at 25° C. for 10 min. In the blank group and the control group, 1 μL of DMSO was added instead of the to-be-tested compound solutions.
(S7) Incubation with Human IL-17Ra
10 μL of 100 nM IL-17Ra (Sino Biological Inc., Cat #10895-H03H) was added to each well, followed by incubation on a shaker at 25° C. for 30 min. The receptor solution was prepared in 10 mM PBST.
(S9) Incubation with Horseradish Peroxidase-Conjugated Antibody
100 μL of mouse anti-Fc tag HRP-conjugated antibody (Sino Biological Inc., Cat #10702-MM01T-H) was added to each well. The plate was incubated on a shaker at 25° C. for 30 min. The antibody was diluted with 5% (w/v) skim milk solution at 1:5,000 (v/v).
100 μL of TMB substrate solution (BD, Cat #555214) was added to each well. Substrate A and substrate B were freshly mixed at a volume ratio of 1:1 before use. The plate was incubated in the dark at 25° C. for 5-15 min.
(S12) Termination and Detection
The color reaction was terminated by addition of 2.5 M HCl. Absorbance was measured at 450 nm using a BMG PHERStar microplate reader.
(S13) Calculation of Half-Maximal Inhibitory Concentration (IC50)
The relative percent residual activity at each compound concentration was calculated according to Equation 1. The IC50 value of each test compound was then calculated in GraphPad 6 using the equation for log(inhibitor) versus normalized response with variable slope, as shown in Equation 2.
relative percent residual activity (%)=[(absorbance of sample−absorbance of blank group)/(absorbance of control group−absorbance of blank group)]%. Equation 1: […]
The compounds prepared in the Examples were tested for IL-17AF inhibitory activity according to the above method.
On to `Cc1[nH]nc2c1-c1cc(F)c(NC(=O)[C@@H](NC(=O)c3ccnn3C(C)C3CC3)C(C3CC3)C3CC3)cc1COCC2` (single isomer, unassigned) [compound 41a], for which the IC50 was 100 to 500 nM.
Take `[2H]C([2H])([2H])C([2H])([2H])n1nccc1C(=O)N[C@H](C(=O)Nc1cc2c(cc1F)-c1c(n[nH]c1C)CCOC2)C(C1CC1)C1CC1` [compound 90]: the IC50 was 100 to 500 nM.
For the compound `Cc1[nH]nc2c1-c1cnc(NC(=O)[C@@H](NC(=O)c3ccnn3C(C)CF)C(C3CC3)C3CC3)cc1COCC2` (single isomer, unassigned) [compound 189a], the IC50 was 100 to 500 nM.
With `Cc1[nH]nc2c1-c1cnc(NC(=O)[C@@H](NC(=O)c3ccnn3CC(F)(F)F)C(C3CC3)C3CC3)cc1COCC2` [compound 236], the IC50 lay in the range of 100 to 500 nM.
On to `Cc1[nH]nc2c1-c1cnc(NC(=O)[C@@H](NC(=O)c3ccnn3C(C)C)C(C3CC3)C3CC3)cc1CN(C(C)C)C(=O)C2` [compound 195], for which the IC50 lay within 100 to 500 nM.
Regarding `CCn1nccc1C(=O)N[C@H](C(=O)Nc1cc2c(cc1F)-c1c(n[nH]c1C)CCOC2)[C@H]1CC[C@H](C)CC1` [compound 46], the IC50 is no more than 100 nM.
`Cc1[nH]nc2c1-c1cc(F)c(NC(=O)[C@@H](NC(=O)c3ccnn3CCCC(F)(F)F)C(C3CC3)C3CC3)cc1COCC2` [compound 84]: the IC50 was in the range of 100 to 500 nM.
With `Cc1[nH]nc2c1-c1cnc(NC(=O)[C@@H](NC(=O)c3conc3C3CC3)C(C3CC3)C3CC3)cc1CN(C1CC1)CC2` [compound 215], the IC50 is no more than 100 nM.
`Cc1[nH]nc2c1-c1cc(F)c(NC(=O)[C@@H](NC(=O)c3ccnn3C(C)C)C(C3CC3)C3CC3)cc1CN(C(C)C(F)(F)F)C(=O)C2` (mixture of isomers) [compound 173]: the IC50 fell in the range of 100 to 500 nM.
Turning to `Cc1[nH]nc2c1-c1cc(F)c(NC(=O)[C@@H](NC(=O)/C(F)=C\C(C)C)C(C3CC3)C3CC3)cc1COCC2` [compound 229], the IC50 lay within 100 to 500 nM.
In the case of `Cc1[nH]nc2c1-c1cnc(NC(=O)[C@@H](NC(=O)c3ccnn3C(C)C)C(C3CC3)C3CC3)cc1CN(C1CC1)CC2` [compound 198], the IC50 lay in the range of 100 to 500 nM.
Regarding `Cc1[nH]nc2c1-c1cc(F)c(NC(=O)[C@@H](NC(=O)/C(F)=C\C3CC3)C(C3CC3)C3CC3)cc1COCC2` [compound 230], the IC50 lay within 100 to 500 nM.
Consider `CCc1nocc1C(=O)N[C@H](C(=O)Nc1cc2c(cn1)-c1c(n[nH]c1C)CCN(C1CC1)C2)C(C1CC1)C1CC1` [compound 216], for which the IC50 was 100 to 500 nM.
For the compound `CCn1nccc1C(=O)N[C@H](C(=O)Nc1cc2c(cn1)-c1c(n[nH]c1C)CCN(C1CC1)C2)C(C1CC1)C1CC1` [compound 217], the IC50 was no more than 100 nM.
Take `Cc1[nH]nc2c1-c1cc(F)c(NC(=O)[C@@H](NC(=O)c3ccnn3CCOCC(F)(F)F)C(C3CC3)C3CC3)cc1COCC2` [compound 104]: the IC50 fell in the range of 100 to 500 nM.
As to `Cc1[nH]nc2c1-c1cnc(NC(=O)[C@@H](NC(=O)c3ccnn3C(C)C)C(C3CC3)C3CC3)cc1CN(C1CC(F)(F)C1)C(=O)C2` [compound 194], the IC50 fell in the range of 100 to 500 nM.
As for `Cc1[nH]nc2c1-c1cc(F)c(NC(=O)[C@@H](NC(=O)c3ccnn3C(C)C)C(C3CC3)C3CC3)cc1CN(C1CC(F)(F)C1)C(=O)C2` [compound 169], the IC50 was no more than 100 nM.
Regarding `Cc1[nH]nc2c1-c1cc(F)c(NC(=O)[C@@H](NC(=O)c3ccnn3C(C)CF)C(C3CC3)C3CC3)cc1COCC2` (single isomer, unassigned) [compound 42a], the IC50 is no more than 100 nM.
For the compound `Cc1[nH]nc2c1-c1cnc(NC(=O)[C@@H](NC(=O)c3ccnn3C(C)C)C(C3CC3)C3CC3)cc1CN(Cc1ccccc1)C(=O)C2` [compound 182], the IC50 was in the range of 100 to 500 nM.
For `Cc1[nH]nc2c1-c1cc(F)c(NC(=O)[C@@H](NC(=O)c3ccnn3CC3CC3)C(C3CC3)C3CC3)cc1COCC2` [compound 59] the value was 100 to 500 nM; for `Cc1[nH]nc2c1-c1cnc(NC(=O)[C@@H](NC(=O)c3ccnn3C(C)C)C(C3CC3)C3CC3)cc1CN(CC(C)(F)F)CC2` [compound 199], no more than 100 nM.
As to `Cc1[nH]nc2c1-c1cnc(NC(=O)[C@@H](NC(=O)c3ccnn3C(C)CF)C(C3CC3)C3CC3)cc1COCC2` (single isomer, unassigned) [compound 189b], the IC50 lay within 100 to 500 nM.
For `Cc1[nH]nc2c1-c1cc(F)c(NC(=O)[C@@H](NC(=O)c3ccnn3C)C(C3CC3)C3CC3)cc1COCC2` [compound 17] the value was 100 to 500 nM.
As for `[2H]C([2H])([2H])C([2H])(n1nccc1C(=O)N[C@H](C(=O)Nc1cc2c(cc1F)-c1c(n[nH]c1C)CCOC2)C(C1CC1)C1CC1)C([2H])([2H])[2H]` [compound 89], the IC50 is 100 to 500 nM.
Regarding `Cc1[nH]nc2c1-c1cc(F)c(NC(=O)[C@@H](NC(=O)c3ccnn3CCCF)C(C3CC3)C3CC3)cc1COCC2` [compound 86], the IC50 was no more than 100 nM.
`Cc1[nH]nc2c1-c1cc(F)c(NC(=O)[C@@H](NC(=O)c3ccnn3CCOC(C)C)C(C3CC3)C3CC3)cc1COCC2` [compound 98]: the IC50 lay in the range of 100 to 500 nM.
As for `Cc1[nH]nc2c1-c1cc(F)c(NC(=O)[C@@H](NC(=O)c3ccnn3C(C)C)C(C3CC3)C3CC3)cc1CN(C(C)C(F)(F)F)C(=O)C2` (single isomer, unassigned) [compound 186a], the IC50 is 100 to 500 nM.
For `Cc1[nH]nc2c1-c1cnc(NC(=O)[C@@H](NC(=O)c3ccnn3C(C)C)C(C3CC3)C3CC3)cc1CN(C1CCC1)CC2` [compound 201], the IC50 lay in the range of 100 to 500 nM.
As for `Cc1[nH]nc2c1-c1cc(F)c(NC(=O)[C@@H](NC(=O)c3ccnn3C(C)C)C(C3CC3)C3CC3)cc1CN(C1CC(F)(F)C1)CC2` [compound 176], the IC50 was no more than 100 nM.
With `COCCCn1nccc1C(=O)N[C@H](C(=O)Nc1cc2c(cc1F)-c1c(n[nH]c1C)CCOC2)C(C1CC1)C1CC1` [compound 58], the IC50 is no more than 100 nM.
For `Cc1[nH]nc2c1-c1cc(F)c(NC(=O)[C@@H](NC(=O)c3ccnn3C(C)C)C(C3CC3)C3CC3)cc1CN(C1CCC(F)(F)CC1)C(=O)C2` [compound 168] the value was 100 to 500 nM.
In the case of `Cc1[nH]nc2c1-c1cnc(NC(=O)[C@@H](NC(=O)c3ccnn3C(C)C)C(C3CC3)C3CC3)cc1CN(C(C)C)CC2` [compound 200], the IC50 fell in the range of 100 to 500 nM.
The figure for `Cc1[nH]nc2c1-c1cnc(NC(=O)[C@@H](NC(=O)c3ccnn3C3CC3)C(C3CC3)C3CC3)cc1COCC2` [compound 237] is 100 to 500 nM; for `Cc1[nH]nc2c1-c1cnc(NC(=O)[C@@H](NC(=O)c3ccnn3C(C)C3CC3)C(C3CC3)C3CC3)cc1COCC2` (single isomer, unassigned) [compound 188b] it is 100 to 500 nM; for `Cc1[nH]nc2c1-c1cnc(NC(=O)[C@@H](NC(=O)c3ccnn3C(C)C)C(C3CC3)C3CC3)cc1CN(C1CC1)C(=O)C2` [compound 191] it is no more than 100 nM.
With `Cc1[nH]nc2c1-c1cc(F)c(NC(=O)[C@@H](NC(=O)c3ccnn3C(C)C)C(C3CC3)C3CC3)cc1CN(CC1CC1)CC2` [compound 166], the IC50 was in the range of 100 to 500 nM.
Take `Cc1[nH]nc2c1-c1cnc(NC(=O)[C@@H](NC(=O)/C(F)=C\C3CC3)C(C3CC3)C3CC3)cc1COCC2` [compound 239]: the IC50 was 100 to 500 nM.
The figure for `Cc1[nH]nc2c1-c1cnc(NC(=O)[C@@H](NC(=O)c3ccnn3C(C)C3CC3)C(C3CC3)C3CC3)cc1COCC2` (single isomer, unassigned) [compound 188a] is 100 to 500 nM.

Usually IC50 stands for the concentration at which inhibition is half-maximal.
